# Legend:
# PDK1 kinase = biological target: T1, PDK1 kinase (Homo sapiens, UniProt O15530); assay: PDK1 Kinase Alpha Screen Assay; format: biochemical; settings: read-out: PDK1 IC50
# T1 sequence (O15530 1-556): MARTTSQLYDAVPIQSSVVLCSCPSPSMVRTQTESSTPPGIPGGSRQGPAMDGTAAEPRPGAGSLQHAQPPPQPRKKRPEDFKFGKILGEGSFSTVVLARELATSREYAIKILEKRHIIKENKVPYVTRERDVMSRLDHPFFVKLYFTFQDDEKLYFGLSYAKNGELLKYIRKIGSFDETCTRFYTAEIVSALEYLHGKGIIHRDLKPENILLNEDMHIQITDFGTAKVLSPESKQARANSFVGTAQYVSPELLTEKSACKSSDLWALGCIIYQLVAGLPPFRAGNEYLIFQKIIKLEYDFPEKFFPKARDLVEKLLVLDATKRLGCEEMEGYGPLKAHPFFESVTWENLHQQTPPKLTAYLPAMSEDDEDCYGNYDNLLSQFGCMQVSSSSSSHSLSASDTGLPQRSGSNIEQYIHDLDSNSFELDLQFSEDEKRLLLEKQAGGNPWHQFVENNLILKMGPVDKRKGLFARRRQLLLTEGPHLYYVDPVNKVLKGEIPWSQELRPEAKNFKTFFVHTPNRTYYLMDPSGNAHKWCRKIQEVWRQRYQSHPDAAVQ
# Procedure, shortened: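 Compound in DMSO added to PDK1-4 peptide; PDK1/ATP mix starts reaction (final 50 nM peptide, 10 uM ATP). Runs 3-18 hours, stopped with 90 mM EDTA buffer. Antibody/bead mix added, developed overnight at room temperature, then AlphaScreen signal read.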
# PC-3 cells = assay: Cell Proliferation Assay (Cell Titer Glo), PC-3 cell line; format: cell-based; settings: Homo sapiens, PC-3, PC3 cells; read-out: CPEC50 PC3
# Procedure, shortened: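 PC-3 cells, 1000 cells/well, left to adhere 3-5 h, then exposed for 3 days at 37° C to compounds as 1:3 serial dilutions from 500× DMSO stocks diluted in growth medium. Medium then replaced with fresh medium and viability read by Cell Titer Glo luminescence.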
IC50 (PDK1 kinase) [µM],EC50 (PC-3 cells) [µM],SMILES
< 5,< 5,"CN1CCN(Cc2cncc(-c3cccc4cnc(Nc5ccc(S(N)(=O)=O)cc5)nc34)c2)CC1 [Compound 943, 4-(8-(5-((4-methylpiperazin-1-yl)methyl)pyridin-3-yl)quinazolin-2-ylamino)benzenesulfonamide]"
< 5,5 to 10,"NS(=O)(=O)c1ccc(Nc2ncc3cccc(-c4cncc(CN5CCNC(=O)C5)c4)c3n2)cc1 [Compound 944, 4-(8-(5-((3-oxopiperazin-1-yl)methyl)pyridin-3-yl)quinazolin-2-ylamino)benzenesulfonamide]"
< 5,< 5,"Cn1cc(-c2ccc3cnc(Nc4ccc(S(N)(=O)=O)cc4)nc3c2-c2ccc(NCCN3CCCC3)nc2)cn1 [Compound 945, 4-(7-(1-methyl-1H-pyrazol-4-yl)-8-(6-(2-(pyrrolidin-1-yl)ethylamino)pyridin-3-yl)quinazolin-2-ylamino)benzenesulfonamide]"
< 5,< 5,"CC(C)NCc1cncc(-c2cccc3cnc(Nc4ccc(S(N)(=O)=O)cc4)nc23)c1 [Compound 946, 4-(8-(5-((isopropylamino)methyl)pyridin-3-yl)quinazolin-2-ylamino)benzenesulfonamide]"
< 5,5 to 10,"NC(=O)C1CCN(Cc2cncc(-c3cccc4cnc(Nc5ccc(S(N)(=O)=O)cc5)nc34)c2)CC1 [Compound 947, 1-((5-(2-(4-sulfamoylphenylamino)quinazolin-8-yl)pyridin-3-yl)methyl)piperidine-4-carboxamide]"
< 5,< 5,"NS(=O)(=O)c1ccc(Nc2ncc3cccc(-c4cncc(CNC5CCOCC5)c4)c3n2)cc1 [Compound 948, 4-(8-(5-((tetrahydro-2H-pyran-4-ylamino)methyl)pyridin-3-yl)quinazolin-2-ylamino)benzenesulfonamide]"
< 5,5 to 10,"CC(=O)N1CCN(Cc2cncc(-c3cccc4cnc(Nc5ccc(S(N)(=O)=O)cc5)nc34)c2)CC1 [Compound 949, 4-(8-(5-((4-acetylpiperazin-1-yl)methyl)pyridin-3-yl)quinazolin-2-ylamino)benzenesulfonamide]"
< 5,< 5,"CN(Cc1cncc(-c2cccc3cnc(Nc4ccc(S(N)(=O)=O)cc4)nc23)c1)C1CCOCC1 [Compound 950, 4-(8-(5-((methyl(tetrahydro-2H-pyran-4-yl)amino)methyl)pyridin-3-yl)quinazolin-2-ylamino)benzenesulfonamide]"
< 5,< 5,"CN(C)[C@@H]1CCN(c2ccc(-c3cccc4cnc(Nc5ccc(S(N)(=O)=O)cc5)nc34)cn2)C1 [Compound 951, (R)-4-(8-(6-(3-(dimethylamino)pyrrolidin-1-yl)pyridin-3-yl)quinazolin-2-ylamino)benzenesulfonamide]"
< 5,< 5,"CN(C)[C@H]1CCN(c2ccc(-c3cccc4cnc(Nc5ccc(S(N)(=O)=O)cc5)nc34)cn2)C1 [Compound 952, (S)-4-(8-(6-(3-(dimethylamino)pyrrolidin-1-yl)pyridin-3-yl)quinazolin-2-ylamino)benzenesulfonamide]"
< 5,< 5,"NS(=O)(=O)c1ccc(Nc2ncc3cccc(-c4ccc(NCCN5CCOCC5)nc4)c3n2)cc1 [Compound 953, 4-(8-(6-(2-morpholinoethylamino)pyridin-3-yl)quinazolin-2-ylamino)benzenesulfonamide]"
< 5,< 5,"CCN(CC)CCNc1ccc(-c2cccc3cnc(Nc4ccc(S(N)(=O)=O)cc4)nc23)cn1 [Compound 954, 4-(8-(6-(2-(diethylamino)ethylamino)pyridin-3-yl)quinazolin-2-ylamino)benzenesulfonamide]"
< 5,< 5,"CN1CCC(Nc2ccc(-c3cccc4cnc(Nc5ccc(S(N)(=O)=O)cc5)nc34)cn2)CC1 [Compound 955, 4-(8-(6-(1-methylpiperidin-4-ylamino)pyridin-3-yl)quinazolin-2-ylamino)benzenesulfonamide]"
< 5,< 5,"CC(C)N1CCN(c2ccc(-c3cccc4cnc(Nc5ccc(S(N)(=O)=O)cc5)nc34)cn2)CC1 [Compound 956, 4-(8-(6-(4-isopropylpiperazin-1-yl)pyridin-3-yl)quinazolin-2-ylamino)benzenesulfonamide]"
5 to 10,5 to 10,"NS(=O)(=O)c1ccc(Nc2ncc3cccc(-c4cncc(C(=O)O)c4)c3n2)cc1 [Compound 962, 5-(2-(4-sulfamoylphenylamino)quinazolin-8-yl)nicotinic acid]"
< 5,< 5,"NS(=O)(=O)c1ccc(Nc2ncc3cc(C(F)(F)F)cc(-c4ccc(NCCN5CCCC5)nc4)c3n2)cc1 [Compound 963, 4-(8-(6-(2-(pyrrolidin-1-yl)ethylamino)pyridin-3-yl)-6-(trifluoromethyl)quinazolin-2-ylamino)benzenesulfonamide]"
5 to 10,< 5,"CN1CCN(c2ccc(-c3cc(C(F)(F)F)cc4cnc(Nc5ccc(S(N)(=O)=O)cc5)nc34)cn2)CC1 [Compound 964, 4-(8-(6-(4-methylpiperazin-1-yl)pyridin-3-yl)-6-(trifluoromethyl)quinazolin-2-ylamino)benzenesulfonamide]"
< 5,< 5,"NS(=O)(=O)c1ccc(Nc2ncc3cc(C(F)(F)F)cc(-c4ccc(N5CCNC(=O)C5)nc4)c3n2)cc1 [Compound 965, 4-(8-(6-(3-oxopiperazin-1-yl)pyridin-3-yl)-6-(trifluoromethyl)quinazolin-2-ylamino)benzenesulfonamide]"
< 5,< 5,"CC(C)NCCCNc1ccc(-c2cccc3cnc(Nc4ccc(S(N)(=O)=O)cc4)nc23)cn1 [Compound 971, 4-(8-(6-(3-(isopropylamino)propylamino)pyridin-3-yl)quinazolin-2-ylamino)benzenesulfonamide]"
< 5,< 5,"NS(=O)(=O)c1ccc(Nc2ncc3cccc(-c4ccc(NCCCN5CCCC5)nc4)c3n2)cc1 [Compound 972, 4-(8-(6-(3-(pyrrolidin-1-yl)propylamino)pyridin-3-yl)quinazolin-2-ylamino)benzenesulfonamide]"
< 5,< 5,"CCN1CCC[C@H]1CNc1ccc(-c2cccc3cnc(Nc4ccc(S(N)(=O)=O)cc4)nc23)cn1 [Compound 973, (S)-4-(8-(6-((1-ethylpyrrolidin-2-yl)methyamino)-pyridin-3-yl)quinazolin-2-ylamino)benzenesulfonamide]"
< 5,< 5,"CCN1CCC[C@@H]1CNc1ccc(-c2cccc3cnc(Nc4ccc(S(N)(=O)=O)cc4)nc23)cn1 [Compound 974, (R)-4-(8-(6-((1-ethylpyrrolidin-2-yl)methylamino)pyridin-3-yl)quinazolin-2-ylamino)benzenesulfonamide]"
< 5,< 5,"CN1CCC(CNc2ccc(-c3cccc4cnc(Nc5ccc(S(N)(=O)=O)cc5)nc34)cn2)CC1 [Compound 975, 4-(8-(6-((1-methylpiperidin-4-yl)methylamino)pyridin-3-yl)quinazolin-2-ylamino)benzenesulfonamide]"
